Assay results taken from PubChem BioAssay (NCI).
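Tested at 5 concentrations; 48 h exposure; 96-well plates; endpoints linearly interpolated, else capped at highest concentration. Here, GI50 denotes the concentration required for 50% inhibition of growth. TGI: total growth inhibition.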

How the values were obtained:
[1] = system: MDA-MB-231 breast; experiment: DTP human tumour cell line panel, 48 h
[2] = system: HS 578T breast; experiment: DTP human tumour cell line panel, 48 h

With `O=C(c1ccccc1)c1nn(-c2ccccc2)c2nc3nc(-c4ccccc4)cc(=O)n3nc12` the GI50 [1] was 26.2 µM, the TGI [1] was over 100 µM and the GI50 [2] was 44.6 µM. It also gave a TGI [2] of over 100 µM.
